Results from US20260091051A1, “USE OF NMN FOR THE PREVENTION AND/OR TREATMENT OF PAIN, AND CORRESPONDING COMPOSITIONS” (Nuvamid SA, priority 2019, published 2026).
Where two headings read alike, the source gives them in different places.

Tests used:
[1] = tested on: acute cystitis induced by cyclophosphamide (CYP) in female Sprague-Dawley rats; details: for nociceptive scores (CYP-induced visceral pain) / nociceptive threshold (CYP-induced allodynia): 500 mg/kg p.o., 15 min before CYP 150 mg/kg i.p.; for nociceptive scores (CYP-induced visceral pain): vs carrier; for visceral pain induced by the CYP (conclusion): single oral treatment 500 mg/kg
Method: Animals: Sprague-Dawley female rats, 7 weeks old as of their birth
Acute Cystitis Induced by CYP: The CYP was injected via intraperitoneal injection at 150 mg/kg in a final volume of 5 ml/kg of saline solution.
The rats were placed in individual Plexiglas boxes with a metal wire mesh floor and allowed to adapt to the chamber for a period of at least 30 minutes prior to the commencement of any testing. Eight von Frey filaments with increasing levels of force viz 1, 2, 4, 6, 8, 10, 15, and 26 g were used. Each calibrated filament was applied 3 times to the lower abdominal area, near the bladder.
• Score 0=no response • Score 1=retraction of the abdomen • Score 2=stamping or changing of position • Score 3=wheezing or squealing, or abdominal curvature, or licking of the site stimulated with von Frey filaments
For each rat, the results were expressed as follows: • Nociceptive threshold: first von Frey force level for which the stimulus is perceived as being painful (the score ≥1 is obtained)=>lowered threshold=allodynia • Nociceptive score: % of the maximum response (total=9 for 3 combined applications) for each filament=>Overall response to pain
Experimental Groups (6 Rats Per Group): • Group 1: Carrier (5 ml/kg)+CYP • Group 2: NMN (500 mg/kg)+CYP • Group 3: Compound A (500 mg/kg)+CYP • Group 4: Compound B (500 mg/kg)+CYP

[2] = tested on: cyclophosphamide-induced cystitis (visceral nociceptive pain) in female Sprague-Dawley rats; assay: Visceral pain model of cyclophosphamide-induced cystitis in rats, von Frey filaments (Example 1); assay type: in vivo, rat; details: for nociceptive threshold (threshold of tolerance to pain, allodynia): CYP-treated rats; for nociceptive threshold (threshold of tolerance to pain, allodynia) / nociceptive score: NMN 500 mg/kg or ibuprofen 300 mg/kg oral
Method: The effectiveness of the use of NMN according to the invention was evaluated in rats in a model of nociceptive pain. More precisely, the model used is a visceral pain model. The administration of cyclophosphamide (CYP) serves as the means to simulate cystitis in rats.
The positive control is ibuprofen, a non-steroidal anti-inflammatory drug frequently prescribed to relieve nociceptive pain. The negative control is the carrier for NMN and ibuprofen, that is to say, distilled water.
For this study, 7-week-old female Sprague-Dawley rats were divided into three groups, each group comprising of 6 rats: • a control group who received 5 ml of distilled water (carrier); • a group treated with NMN at 500 mg/kg; and • a group treated with ibuprofen at 300 mg/kg.
The NMN is in the form of zwitterion.
After 24 hours of adaptation, a test to measure the threshold of pain tolerance of each animal was carried out with von Frey filaments prior to the start of the study. This measurement prior to any exposure to a painful stimulus makes it possible to obtain the baseline pain tolerance threshold level in the animals and serves as a negative control.
Von Frey filaments are used as a device for measuring the sensitivity of the skin to touch. The use of von Frey filaments makes it possible to test for allodynia and hyperalgesia in rodents. Briefly put, each filament corresponds to a given force. The filaments are applied in ascending order of increasing force to the animal's skin. The rodents in effect have a reflex to withdraw when an unexpected contact occurs. The withdrawal in response to a force exerted on the rodent is indicative of the animal's threshold of tolerance to pain. The use of von Frey filaments is commonly implemented for measurement of pain in rodents (Deuis J R, Dvorakova L S and Vetter I (2017) Methods Used to Evaluate Pain Behaviors in Rodents. Front. Mol. Neurosci. 10:284.).
In the present study, eight filaments in ascending order of increasing force, of 1 g, 2 g, 4 g, 6 g, 8 g, 10 g, 15 g, and 26 g, were used and applied three times each to the animal's abdomen, near the bladder. The animal's response was assessed as follows: • score 0: no response • score 1: retraction of the abdomen • score 2: stamping or changing of position of the animal • score 3: twitching, or curving or rounding of the abdomen, or licking of the area stimulated by the von Frey filament.
For each rat, the results are expressed as follows: • nociceptive threshold: first force level at which a response from the animal is observed (response score greater than or equal to 1). This indicates the lowest threshold of tolerance to pain for measuring allodynia; • nociceptive score: percentage of the maximum response for each filament. This indicates the overall pain response.
The animals of each of the groups receive either the carrier, or NMN at 500 mg/kg, or ibuprofen at 300 mg/kg administered via the oral route. After administration of the compounds to be tested (carrier, NMN, or ibuprofen), cyclophosphamide is injected via the intraperitoneal route into each rat. The cyclophosphamide induces strong inflammation in the bladder and simulates a pain induced by a urinary tract infection such as cystitis.
The test with the von Frey filaments is repeated at 2 hr and then subsequently at 4 hr after injection of the cyclophosphamide in order to measure the pain response of the animals.
The results were analysed by a one-way analysis of variance (ie one-way ANOVA) test supplemented by a Dunnett's test or by a two-way ANOVA analysis. With regard to statistical significance, * signifies that p<0.05, ** signifies that p<0.01, and *** signifies that p<0.001, as compared to the group treated with the carrier.

[3] = T=2 h after CYP injection, vs carrier (FIG. 3B)
[4] = T=4 h after CYP injection, vs carrier (FIG. 3C)

Molecule	nociceptive scores (CYP-induced visceral pain) ([1]; +2 hr)	nociceptive threshold (CYP-induced allodynia) ([1]; +2 hr, vs carrier (FIG. 6A))	nociceptive scores (CYP-induced visceral pain) ([1]; +4 hr)	nociceptive threshold (CYP-induced allodynia) ([1]; +4 hr, vs carrier (FIG. 6B))	visceral pain induced by the CYP (conclusion) ([1]; +2 hr)	visceral pain induced by the CYP (conclusion) ([1]; +4 hr)	nociceptive threshold after CYP vs baseline response ([1]; CYP 150 mg/kg i.p., carrier-treated group, 2 hours and 4 hours post injection (FIG. 2A))	nociceptive scores after CYP vs baseline response ([1]; CYP 150 mg/kg i.p., carrier-treated group, 2 hours and 4 hours post injection (FIG. 2B))	pain tolerance threshold (nociceptive threshold) after cyclophosphamide ([2]; carrier-treated rats, intraperitoneal cyclophosphamide, 10 g before administration (FIG. 1B))	nociceptive threshold (threshold of tolerance to pain, allodynia) ([2]; T0, vs carrier (FIG. 3A))	nociceptive threshold (threshold of tolerance to pain, allodynia) [2, 3]	nociceptive threshold (threshold of tolerance to pain, allodynia) [2, 4]	nociceptive score ([2]; 2 hours after CYP (FIG. 4B))	nociceptive score ([2]; 4 hours after CYP (FIG. 4C))
di-NMN [Compound B]	no effect was observed	no effect	significant decrease in the nociceptive scores	significant increase in the nociceptive threshold	no beneficial effect	significant anti-nociceptive activity								
O=P1(N(CCCl)CCCl)NCCCO1 (stereo not shown) [cyclophosphamide, reference compound]							significant decrease in the nociceptive threshold	significant increase in the nociceptive scores	3 g					
NC(=O)c1ccc[n+]([C@@H]2O[C@H](COP(=O)([O-])O)[C@@H](O)[C@H]2O)c1 [NMN, nicotinamide mononucleotide]	significant decrease in the nociceptive scores	slight increase in the nociceptive threshold	significant decrease in the nociceptive scores	slight increase in the nociceptive threshold	relieved the visceral pain	relieved the visceral pain				increase the response threshold to nociceptive pain significantly	increase the response threshold to nociceptive pain significantly	increase the response threshold to nociceptive pain significantly	reducing the nociceptive score	reducing the nociceptive score
NC(=O)c1ccc[n+]([C@H]2O[C@H](COP(=O)([O-])O)[C@@H](O)[C@H]2O)c1 [Compound A, alpha nicotinamide mononucleotide]	decrease in the nociceptive scores	increase in the nociceptive threshold	only achieved the level of statistical significance at +4 h	significant at +4 hr	reduced the visceral pain	only achieving the level of significance at +4 hr								
CC(C)Cc1ccc(C(C)C(=O)O)cc1 (stereo not shown) [ibuprofen]										significantly increase the threshold of tolerance to pain	significantly increase the threshold of tolerance to pain	significantly increase the threshold of tolerance to pain	reducing the nociceptive score	reducing the nociceptive score
